{
  "source": "patent US20220306617A1",
  "about": "“SUBSTITUTED 1,3-PHENYL HETEROARYL DERIVATIVES AND THEIR USE IN THE TREATMENT OF DISEASE” (NOVARTIS AG, priority 2019, published 2022)",
  "molecular_target": "T1, abc isoform of human TMEM16A channel expressed in CHO cells (Homo sapiens, UniProt Q5XXA6, DEL476-501)",
  "T1 construct": "expressed in transfected cells; host or cells: CHO cells, doxycycline-inducible expression under Blasticidin/Zeocin selection",
  "T1 sequence (Q5XXA6 with tags, fused parts or gaps isoform Q5XXA6-5 DEL539-564)": "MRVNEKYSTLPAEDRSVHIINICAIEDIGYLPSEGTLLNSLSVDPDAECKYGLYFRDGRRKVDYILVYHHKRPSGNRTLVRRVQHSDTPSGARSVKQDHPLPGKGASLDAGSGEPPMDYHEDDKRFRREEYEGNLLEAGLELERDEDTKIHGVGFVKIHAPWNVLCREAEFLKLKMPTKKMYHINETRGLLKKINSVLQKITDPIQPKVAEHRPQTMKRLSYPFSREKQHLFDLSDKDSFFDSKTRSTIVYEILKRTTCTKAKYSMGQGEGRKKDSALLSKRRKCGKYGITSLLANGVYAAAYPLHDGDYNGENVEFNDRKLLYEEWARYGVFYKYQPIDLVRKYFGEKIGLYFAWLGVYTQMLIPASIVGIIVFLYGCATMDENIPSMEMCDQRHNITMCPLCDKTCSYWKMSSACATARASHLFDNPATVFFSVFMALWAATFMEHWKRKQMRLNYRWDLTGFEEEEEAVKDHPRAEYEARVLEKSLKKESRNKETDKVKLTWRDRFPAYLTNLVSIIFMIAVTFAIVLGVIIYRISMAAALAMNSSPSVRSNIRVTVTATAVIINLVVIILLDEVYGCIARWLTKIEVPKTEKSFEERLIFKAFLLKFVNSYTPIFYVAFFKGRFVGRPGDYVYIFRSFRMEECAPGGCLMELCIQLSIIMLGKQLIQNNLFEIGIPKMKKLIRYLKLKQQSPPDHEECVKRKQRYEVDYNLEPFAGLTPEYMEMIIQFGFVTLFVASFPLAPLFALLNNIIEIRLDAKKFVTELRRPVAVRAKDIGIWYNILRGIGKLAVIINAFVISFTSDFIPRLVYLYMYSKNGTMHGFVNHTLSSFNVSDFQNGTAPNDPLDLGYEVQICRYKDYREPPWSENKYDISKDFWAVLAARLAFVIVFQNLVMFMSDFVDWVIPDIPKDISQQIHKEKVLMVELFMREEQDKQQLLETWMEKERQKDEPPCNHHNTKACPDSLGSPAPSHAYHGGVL",
  "experiment": "Automated patch clamping (QPatch) assay to measure TMEM16A activity in whole-cell",
  "assay_type": "cell-based",
  "details": "for pEC50: CHO cells expressing human TMEM16A (abc), whole-cell automated patch clamp, Hill fit, read-out: TMEM16A QPATCH assay EC50 V3 EC50; for Emax: CHO, maximum current at highest dose relative to reference potentiator at maximal concentration (upper limit) and vehicle (lower limit), read-out: TMEM16A QPATCH assay EC50 V3 Assay Window (% TMEM16A max activation)",
  "procedure,_shortened": "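Whole-cell currents were recorded by planar automated patch clamp from induced CHO cells (doxycycline 1 μg/mL, 18-24 h), using a −70 mV hold, +70 mV step and −90 to +70 mV ramp. Values: Hill-fitted EC50, and activation scaled between vehicle current and reference-potentiator maximum; 0.3% DMSO final.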",
  "note": "pEC50: −log10 of the molar value.",
  "data": [
    {"smiles": "C[C@H](NC(=O)c1cc(-c2cccc(-c3ncc(C(=O)N[C@H](C)C4CC4)o3)c2)nn1CC(O)C(F)(F)F)C1CC1", "note": "(stereo partly drawn) [Example 8.2, N-((R)-1-Cyclopropylethyl)-2-(3-(5-(((S)-1-Cyclopropylethyl)Carbamoyl)-1-(3,3,3-Trifluoro-2-Hydroxypropyl)-1H-Pyrazol-3-Yl)Phenyl)Oxazole-5-Carboxamide]", "values": [
      {"measurement": "pEC50", "value": 6.35},
      {"measurement": "Emax", "value": 119, "unit": "%"}
    ]},
    {"smiles": "CCC(CC)NC(=O)c1cnc(-c2cccc(-c3cc(C(=O)N[C@@H](C)C4CC4)n(CCOC(C)C)n3)c2)o1", "note": "[Example 9.0, (S)-2-(3-(5-((1-Cyclopropylethyl)Carbamoyl)-1-(2-Isopropoxyethyl)-1 H-Pyrazol-3-Yl)Phenyl)-N-(Pentan-3-Yl)Oxazole-5-Carboxamide]", "values": [
      {"measurement": "pEC50", "value": 6.82},
      {"measurement": "Emax", "value": 137, "unit": "%"}
    ]},
    {"smiles": "CCC(CC)NC(=O)c1cnc(-c2cccc(-c3cc(C(=O)N[C@@H](C)C4CC4)n(CC(O)C(F)(F)F)n3)c2)o1", "note": "(stereo partly drawn) [Example 9.1, 2-(3-(5-(((S)-1-Cyclopropylethyl)Carbamoyl)-1-(3,3,3-Trifluoro-2-Hydroxypropyl)-1H-Pyrazol-3-Yl)Phenyl)-N-(Pentan-3-Yl)Oxazole-5-Carboxamide]", "values": [
      {"measurement": "pEC50", "value": 7.10},
      {"measurement": "Emax", "value": 155, "unit": "%"}
    ]},
    {"smiles": "CCC(CC)NC(=O)c1cnc(-c2cccc(-c3cc(C(=O)N[C@@H](C)C4CC4)n(C4COC4)n3)c2)o1", "note": "[Example 9.3, (S)-2-(3-(5-((1-Cyclopropylethyl)Carbamoyl)-1-(Oxetan-3-Yl)-1H-Pyrazol-3-Yl)Phenyl)-N-(Pentan-3-Yl)Oxazole-5-Carboxamide]", "values": [
      {"measurement": "pEC50", "value": 6.40},
      {"measurement": "Emax", "value": 143, "unit": "%"}
    ]},
    {"smiles": "COC(=O)[C@@H](NC(=O)c1cnc(-c2cccc(-c3cc(C(=O)NC(C4CC4)C4CC4)n(CC(C)(C)O)n3)c2)o1)C(C)C", "note": "[Example 9.4, (S)-Methyl 2-(2-(3-(5-((Dicyclopropylmethyl)Carbamoyl)-1-(2-Hydroxy-2-Methylpropyl)-1 H-Pyrazol-3-Yl)Phenyl)Oxazole-5-Carboxamido)-3-Methylbutanoate]", "values": [
      {"measurement": "pEC50", "value": 6.38},
      {"measurement": "Emax", "value": 105, "unit": "%"}
    ]},
    {"smiles": "CCC(CC)NC(=O)c1cnc(-c2cccc(-c3cc(C(=O)N[C@@H](C)C4CC4)n(CC(C)O)n3)c2)o1", "note": "(stereo partly drawn) [Example 9.5, 2-(3-(5-(((S)-1-Cyclopropylethyl)Carbamoyl)-1-(2-Hydroxypropyl)-1H-Pyrazol-3-Yl)Phenyl)-N-(Pentan-3-Yl)Oxazole-5-Carboxamide]", "values": [
      {"measurement": "pEC50", "value": 6.62},
      {"measurement": "Emax", "value": 104, "unit": "%"}
    ]},
    {"smiles": "CCOC(=O)[C@@H](NC(=O)c1cnc(-c2cccc(-c3cc(C(=O)NC(C4CC4)C4CC4)n(CC(C)(C)O)n3)c2)o1)C(C)C", "note": "[Example 9.6, (S)-Ethyl 2-(2-(3-(5-((Dicyclopropylmethyl)Carbamoyl)-1-(2-Hydroxy-2-Methylpropyl)-1 H-Pyrazol-3-Yl)Phenyl)Oxazole-5-Carboxamido)-3-Methylbutanoate]", "values": [
      {"measurement": "pEC50", "value": 7.52},
      {"measurement": "Emax", "value": 100, "unit": "%"}
    ]},
    {"smiles": "CCC(CC)NC(=O)c1cnc(-c2cccc(-c3cc(C(=O)NC(CC)CC)n(CCO)n3)c2)o1", "note": "[Example 9.7, 2-(3-(1-(2-Hydroxyethyl)-5-(Pentan-3-Ylcarbamoyl)-1H-Pyrazol-3-Yl)Phenyl)-N-(Pentan-3-Yl)Oxazole-5-Carboxamide]", "values": [
      {"measurement": "pEC50", "value": 7.05},
      {"measurement": "Emax", "value": 85, "unit": "%"}
    ]},
    {"smiles": "CCC(CC)NC(=O)c1cnc(-c2cccc(-c3cc(C(=O)N[C@@H](C)C4CC4)n(CCO)n3)c2)o1", "note": "[Example 9.8, (S)-2-(3-(5-((1-cyclopropylethyl)carbamoyl)-1-(2-hydroxyethyl)-1 H-pyrazol-3-yl)phenyl)-N-(pentan-3-yl)oxazole-5-carboxamide]", "values": [
      {"measurement": "pEC50", "value": 6.74},
      {"measurement": "Emax", "value": 88, "unit": "%"}
    ]},
    {"smiles": "CCOC(=O)[C@@H](NC(=O)c1cc(-c2cccc(-c3ncc(C(=O)NC(C4CC4)C4CC4)o3)c2)nn1CC(C)(C)O)C(C)C", "note": "[Example 10.0, (S)-Ethyl 2-(3-(3-(5-((Dicyclopropylmethyl)Carbamoyl)Oxazol-2-Yl)Phenyl)-1-(2-Hydroxy-2-Methylpropyl)-1 H-Pyrazole-5-Carboxamido)-3-Methylbutanoate]", "values": [
      {"measurement": "pEC50", "value": 7.40},
      {"measurement": "Emax", "value": 116, "unit": "%"}
    ]},
    {"smiles": "C[C@@H](NC(=O)c1cnc(-c2cccc(-c3cc(C(=O)N[C@H](C)C4CC4)n(CCO)n3)c2)o1)C1CC1", "note": "[Example 10.1, N-((R)-1-Cyclopropylethyl)-2-(3-(5-(((R)-1-Cyclopropylethyl)Carbamoyl)-1-(2-Hydroxyethyl)-1H-Pyrazol-3-yl)Phenyl)Oxazole-5-Carboxamide]", "values": [
      {"measurement": "pEC50", "value": 6.49},
      {"measurement": "Emax", "value": 101, "unit": "%"}
    ]},
    {"smiles": "C[C@H](NC(=O)c1cc(-c2cccc(-c3ncc(C(=O)N[C@H](C)C4CC4)o3)c2)nn1CCO)C1CC1", "note": "[Example 10.2, N-((R)-1-Cyclopropylethyl)-2-(3-(5-(((S)-1-Cyclopropylethyl)Carbamoyl)-1-(2-Hydroxyethyl)-1H-Pyrazol-3-Yl)Phenyl)Oxazole-5-Carboxamide]", "values": [
      {"measurement": "pEC50", "value": 6.17},
      {"measurement": "Emax", "value": 108, "unit": "%"}
    ]},
    {"smiles": "CCOC(=O)[C@@H](NC(=O)c1cc(-c2cccc(-c3ncc(C(=O)NC(CC)CC)o3)c2)nn1CCOP(=O)(OCC)OCC)C(C)C", "note": "[Example 11.0, (S)-Ethyl 2-(1-(2-((Diethoxyphosphoryl)Oxy)Ethyl)-3-(3-(5-(Pentan-3-Ylcarbamoyl)Oxazol-2-Yl)Phenyl)-1H-Pyrazole-5-Carboxamido)-3-Methylbutanoate]", "values": [
      {"measurement": "pEC50", "value": 6.21},
      {"measurement": "Emax", "value": 128, "unit": "%"}
    ]},
    {"smiles": "C[C@H](NC(=O)c1nnc(-c2cccc(-c3ncc(C(=O)N[C@@H](C)C4CC4)o3)c2)[nH]1)C1CC1", "note": "[Example 12.0, N-((S)-1-Cyclopropylethyl)-2-(3-(5-(((S)-1-Cyclopropylethyl)Carbamoyl)-4H-1,2,4-Triazol-3-Yl)Phenyl)Oxazole-5-Carboxamide]", "values": [
      {"measurement": "pEC50", "value": 6.52},
      {"measurement": "Emax", "value": 63, "unit": "%"}
    ]},
    {"smiles": "C[C@H](NC(=O)c1nnc(-c2cccc(-c3ncc(C(=O)N[C@H](C)C4CC4)o3)c2)[nH]1)C1CC1", "note": "[Example 12.1, N-((R)-1-Cyclopropylethyl)-2-(3-(5-(((S)-1-Cyclopropylethyl)Carbamoyl)-4H-1,2,4-Triazol-3-Yl)Phenyl)Oxazole-5-Carboxamide]", "values": [
      {"measurement": "pEC50", "value": 6.57},
      {"measurement": "Emax", "value": 80, "unit": "%"}
    ]},
    {"smiles": "CCOC(=O)[C@@H](NC(=O)c1cnc(-c2cccc(-c3nnc(C(=O)N[C@@H](C)C4CC4)[nH]3)c2)o1)C(C)C", "note": "[Example 12.2, (S)-Ethyl 2-(2-(3-(5-(((S)-1-Cyclopropylethyl)Carbamoyl)-4H-1,2,4-Triazol-3-Yl)Phenyl)Oxazole-5-Carboxamido)-3-Methylbutanoate]", "values": [
      {"measurement": "pEC50", "value": 7.30},
      {"measurement": "Emax", "value": 112, "unit": "%"}
    ]},
    {"smiles": "COC(=O)[C@@H](NC(=O)c1cnc(-c2cccc(-c3nnc(C(=O)N[C@@H](C)C4CC4)[nH]3)c2)o1)C(C)C", "note": "[Example 12.3, (S)-Methyl 2-(2-(3-(5-(((S)-1-Cyclopropylethyl)Carbamoyl)-4H-1,2,4-Triazol-3-Yl)Phenyl)Oxazole-5-Carboxamido)-3-Methylbutanoate]", "values": [
      {"measurement": "pEC50", "value": 6.66},
      {"measurement": "Emax", "value": 92, "unit": "%"}
    ]},
    {"smiles": "CC(C)[C@H](NC(=O)c1cnc(-c2cccc(-c3nnc(C(=O)N[C@@H](C)C4CC4)[nH]3)c2)o1)C(=O)OC(C)(C)C", "note": "[Example 12.4, (S)-Tert-Butyl 2-(2-(3-(5-(((S)-1-Cyclopropylethyl)Carbamoyl)-4H-1,2,4-Triazol-3-Yl)Phenyl)Oxazole-5-Carboxamido)-3-Methylbutanoate]", "values": [
      {"measurement": "pEC50", "value": 7.15},
      {"measurement": "Emax", "value": 119, "unit": "%"}
    ]},
    {"smiles": "C[C@H](NC(=O)c1nnc(-c2cccc(-c3ncc(C(=O)NC(C4CC4)C4CC4)o3)c2)[nH]1)C1CC1", "note": "[Example 12.5, (S)-2-(3-(5-((1-Cyclopropylethyl)Carbamoyl)-4H-1,2,4-Triazol-3-Yl)Phenyl)-N-(Dicyclopropylmethyl)Oxazole-5-Carboxamide]", "values": [
      {"measurement": "pEC50", "value": 7.52},
      {"measurement": "Emax", "value": 92, "unit": "%"}
    ]},
    {"smiles": "CCOC(=O)[C@@H](NC(=O)c1cnc(-c2cccc(-c3nnc(C(=O)NC(C4CC4)C4CC4)[nH]3)c2)o1)C(C)C", "note": "[Example 12.6, (S)-Ethyl 2-(2-(3-(5-((Dicyclopropylmethyl)Carbamoyl)-4H-1,2,4-Triazol-3-Yl)Phenyl)Oxazole-5-Carboxamido)-3-Methylbutanoate]", "values": [
      {"measurement": "pEC50", "value": 7.70},
      {"measurement": "Emax", "value": 142, "unit": "%"}
    ]},
    {"smiles": "C[C@H](NC(=O)c1cnc(-c2cccc(-c3nnc(C(=O)NC(C4CC4)C4CC4)[nH]3)c2)o1)C1CC1", "note": "[Example 12.7, (S)-N-(1-Cyclopropylethyl)-2-(3-(5-((Dicyclopropylmethyl)Carbamoyl)-4H-1,2,4-Triazol-3-Yl)Phenyl)Oxazole-5-Carboxamide]", "values": [
      {"measurement": "pEC50", "value": 7.70},
      {"measurement": "Emax", "value": 91, "unit": "%"}
    ]}
  ]
}
